Active and inactive are the calls of the source.
Assays:
[1] = molecular target: Potassium channel subfamily K member 3 (Homo sapiens, UniProt O14649); assay: inhibition of human KCNK3 channel flux – CHO cells, FluxOR thallium flux, SAR follow-up (AID 652212); type: functional
[2] = tested on: Escherichia coli; assay: microbe, parasite or virus in culture
[3] = molecular target: 1-phosphatidylinositol 4,5-bisphosphate phosphodiesterase gamma-1 (Homo sapiens, UniProt P19174); assay: Counterscreen for inhibitors of phospholipase C isozymes (PLC-B3): Fluorescence-based biochemical high throughput dose response assay to identify inhibitors of phospholipase C isozymes (PLC-gamma1).
1-phosphatidylinositol 4,5-bisphosphate phosphodiesterase gamma-1, sequence (P19174 whole entry): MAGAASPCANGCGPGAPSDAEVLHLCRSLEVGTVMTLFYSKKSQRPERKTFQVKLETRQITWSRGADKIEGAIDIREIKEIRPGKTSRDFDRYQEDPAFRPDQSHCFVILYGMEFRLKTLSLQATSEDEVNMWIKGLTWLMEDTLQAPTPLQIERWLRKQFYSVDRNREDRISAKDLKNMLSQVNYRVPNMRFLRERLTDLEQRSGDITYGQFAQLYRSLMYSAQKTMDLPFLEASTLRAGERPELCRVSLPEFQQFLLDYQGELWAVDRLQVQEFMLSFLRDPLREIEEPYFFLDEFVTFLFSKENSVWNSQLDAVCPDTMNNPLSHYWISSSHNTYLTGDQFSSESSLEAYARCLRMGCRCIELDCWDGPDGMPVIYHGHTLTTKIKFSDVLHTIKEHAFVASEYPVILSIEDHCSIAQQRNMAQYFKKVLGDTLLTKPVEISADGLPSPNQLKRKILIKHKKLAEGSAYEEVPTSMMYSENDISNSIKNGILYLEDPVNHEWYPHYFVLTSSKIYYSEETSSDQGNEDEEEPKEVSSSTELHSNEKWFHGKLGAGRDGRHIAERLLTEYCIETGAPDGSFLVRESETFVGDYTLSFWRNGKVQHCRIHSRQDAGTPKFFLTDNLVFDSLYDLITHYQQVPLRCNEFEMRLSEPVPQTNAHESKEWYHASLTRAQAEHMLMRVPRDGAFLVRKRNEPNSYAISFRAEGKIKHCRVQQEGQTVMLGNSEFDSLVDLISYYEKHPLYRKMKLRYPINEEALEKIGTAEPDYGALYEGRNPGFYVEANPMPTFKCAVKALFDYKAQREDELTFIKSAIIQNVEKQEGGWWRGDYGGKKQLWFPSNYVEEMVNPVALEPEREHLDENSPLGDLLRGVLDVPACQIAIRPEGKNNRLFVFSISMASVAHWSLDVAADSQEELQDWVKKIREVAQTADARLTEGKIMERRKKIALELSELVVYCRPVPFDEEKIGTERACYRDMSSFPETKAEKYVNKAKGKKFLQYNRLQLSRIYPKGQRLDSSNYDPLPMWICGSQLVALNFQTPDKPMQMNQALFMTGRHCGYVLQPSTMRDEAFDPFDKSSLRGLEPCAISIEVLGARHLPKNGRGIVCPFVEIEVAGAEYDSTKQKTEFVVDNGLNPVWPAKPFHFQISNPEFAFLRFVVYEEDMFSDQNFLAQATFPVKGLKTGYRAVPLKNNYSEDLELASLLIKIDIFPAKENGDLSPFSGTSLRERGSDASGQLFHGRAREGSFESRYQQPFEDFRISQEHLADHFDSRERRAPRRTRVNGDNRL

[4] = molecular target: 1-phosphatidylinositol 4,5-bisphosphate phosphodiesterase beta-3 (Homo sapiens, UniProt Q01970); assay: Fluorescence-based biochemical high throughput dose response assay to identify inhibitors of phospholipase C isozymes (PLC-B3).
1-phosphatidylinositol 4,5-bisphosphate phosphodiesterase beta-3, sequence (Q01970 whole entry): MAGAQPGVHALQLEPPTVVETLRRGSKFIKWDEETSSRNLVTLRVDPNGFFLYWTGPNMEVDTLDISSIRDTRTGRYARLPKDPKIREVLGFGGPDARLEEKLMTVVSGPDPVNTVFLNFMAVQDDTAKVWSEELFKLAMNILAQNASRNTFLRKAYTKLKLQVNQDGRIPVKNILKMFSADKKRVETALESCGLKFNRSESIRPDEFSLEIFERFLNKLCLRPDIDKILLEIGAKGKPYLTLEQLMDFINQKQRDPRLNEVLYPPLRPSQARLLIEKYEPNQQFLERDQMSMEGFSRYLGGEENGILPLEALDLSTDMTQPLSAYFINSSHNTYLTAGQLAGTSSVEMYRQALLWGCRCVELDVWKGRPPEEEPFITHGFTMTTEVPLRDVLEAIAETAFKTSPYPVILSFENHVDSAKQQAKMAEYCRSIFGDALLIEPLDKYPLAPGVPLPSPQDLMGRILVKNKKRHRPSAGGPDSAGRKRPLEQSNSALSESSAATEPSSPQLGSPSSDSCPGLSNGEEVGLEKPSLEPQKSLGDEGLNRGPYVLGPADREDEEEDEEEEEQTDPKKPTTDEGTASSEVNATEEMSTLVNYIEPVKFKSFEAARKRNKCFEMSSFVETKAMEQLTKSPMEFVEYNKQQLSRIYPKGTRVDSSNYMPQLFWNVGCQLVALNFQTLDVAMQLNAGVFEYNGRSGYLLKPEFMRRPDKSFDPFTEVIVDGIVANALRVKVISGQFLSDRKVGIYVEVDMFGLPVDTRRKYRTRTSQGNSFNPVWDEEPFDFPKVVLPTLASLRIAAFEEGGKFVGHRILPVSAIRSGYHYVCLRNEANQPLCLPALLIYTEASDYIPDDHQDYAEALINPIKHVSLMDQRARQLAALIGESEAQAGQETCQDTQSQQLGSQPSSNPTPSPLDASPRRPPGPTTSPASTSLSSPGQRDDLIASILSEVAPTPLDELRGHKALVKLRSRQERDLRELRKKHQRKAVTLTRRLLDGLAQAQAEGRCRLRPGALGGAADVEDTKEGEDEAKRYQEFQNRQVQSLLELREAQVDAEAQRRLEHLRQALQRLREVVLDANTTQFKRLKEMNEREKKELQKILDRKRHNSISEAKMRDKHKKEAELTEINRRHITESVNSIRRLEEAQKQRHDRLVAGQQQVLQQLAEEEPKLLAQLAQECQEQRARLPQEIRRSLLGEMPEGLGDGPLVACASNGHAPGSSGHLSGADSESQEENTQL

[5] = reduction of Shn3 3'UTR-driven luciferase in osteoblasts – cell-based, Clone20 osteoblasts, firefly luciferase, cherry-picked, dose response (AID 624132); type: functional;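 note: firefly luciferase luminescence from reporter carrying the Shn3 3'UTR in osteoblasts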
[6] = loss of viability in HepG2 cells – cell-based, CellTiter-Glo, cherry-picked, cytotoxicity control for Shn3 inhibitor project, dose response (AID 624134); type: functional
[7] = non-specific 3'UTR reporter inhibition in Clone20-Shn3RL – cell-based, Renilla luciferase, cherry-picked, counter-screen for Shn3 inhibitor project, dose response (AID 624133); type: functional
[8] = Shn3 3'UTR reporter signal decrease – cell-based, Clone20 osteoblasts, firefly luciferase, cherry-pick, set 2, Schnurri-3 inhibitor project, dose response (AID 720490); type: functional;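 note: actives lower the luminescence signal as inhibitors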
[9] = toxicity toward HepG2 liver cells – cell-based, plate reader, cherry-pick, antagonist series, cytotoxicity control, dose response (AID 743416); type: functional
[10] = blockers of bursicon-stimulated LGR2 cAMP reporter – cell-based, HEK293, CRE-luciferase reporter, cherry pick, set 2, dose response (AID 743343); type: functional;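 note: transfected cells were stimulated with diluted bursicon conditioned medium after compound addition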
[11] = blockade of melanocortin 4 receptor signaling – cell-based, plate reader, cherry pick, counter-screen for LGR2 antagonist project, dose response (AID 743444); type: functional;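 note: transfected HEK 293 cells stimulated with alpha-MSH peptide; potency of inhibitors of the alpha-MSH evoked signal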
[12] = viability loss in HEK293 cells – cell-based, plate reader, cherry-picked samples, cytotoxicity control, dose response (AID 743446); type: functional
[13] = molecular target: Caspase-6 (Homo sapiens, UniProt P55212); assay: inhibition of CASP6 peptide cleavage – biochemical, VEID-R110 fluorescence, cherry-pick, dose response (AID 720632)
Caspase-6, sequence (P55212 24-179 limits assumed): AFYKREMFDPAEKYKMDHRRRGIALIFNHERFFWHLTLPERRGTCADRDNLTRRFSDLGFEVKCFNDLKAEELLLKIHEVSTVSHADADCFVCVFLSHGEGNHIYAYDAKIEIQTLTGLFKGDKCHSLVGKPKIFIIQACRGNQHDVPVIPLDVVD
Caspase-6, sequence (P55212 194-293 limits assumed): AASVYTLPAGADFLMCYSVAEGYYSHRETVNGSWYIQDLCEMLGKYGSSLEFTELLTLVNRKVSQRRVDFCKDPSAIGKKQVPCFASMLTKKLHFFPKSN

[14] = molecular target: Paired box protein Pax-8 (Homo sapiens, UniProt Q06710); assay: PAX8 transcriptional activity inhibition in RMG-I – RMG-I cells, luciferase, cherry-pick, dose response (AID 687027); type: functional, cell-based;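 note: luciferase reporter driven by Pax8 target thyroperoxidase promoter measured by SteadyGlo luminescence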
Paired box protein Pax-8, sequence (Q06710 whole entry): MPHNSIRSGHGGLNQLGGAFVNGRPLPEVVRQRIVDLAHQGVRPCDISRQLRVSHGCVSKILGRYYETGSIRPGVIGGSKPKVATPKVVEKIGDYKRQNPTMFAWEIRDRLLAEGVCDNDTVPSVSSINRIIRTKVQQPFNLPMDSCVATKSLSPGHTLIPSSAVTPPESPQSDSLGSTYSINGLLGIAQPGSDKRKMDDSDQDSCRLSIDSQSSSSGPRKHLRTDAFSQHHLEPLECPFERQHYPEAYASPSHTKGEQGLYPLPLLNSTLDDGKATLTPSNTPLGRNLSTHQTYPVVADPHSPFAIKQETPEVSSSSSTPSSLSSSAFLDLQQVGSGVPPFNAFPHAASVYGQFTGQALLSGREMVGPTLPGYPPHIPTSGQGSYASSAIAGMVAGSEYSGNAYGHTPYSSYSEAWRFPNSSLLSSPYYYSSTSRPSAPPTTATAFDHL

[15] = toxicity toward immortalized ovarian surface epithelium – cell-based, plate reader, dry powder samples, cytotoxicity control for PAX8 inhibitor project, dose response (AID 743045); type: functional
[16] = OVCAR-3 cell viability loss – plate reader, dry powder samples, PAX8 inhibitor project, dose response (AID 743044); type: functional, cell-based
[17] = OVCAR8 cell viability loss – plate reader, dry powder samples, PAX8 project, dose response (AID 743197); type: functional, cell-based; conditions: OVCAR-8

Potassium channel subfamily K member 3, sequence (O14649 whole entry): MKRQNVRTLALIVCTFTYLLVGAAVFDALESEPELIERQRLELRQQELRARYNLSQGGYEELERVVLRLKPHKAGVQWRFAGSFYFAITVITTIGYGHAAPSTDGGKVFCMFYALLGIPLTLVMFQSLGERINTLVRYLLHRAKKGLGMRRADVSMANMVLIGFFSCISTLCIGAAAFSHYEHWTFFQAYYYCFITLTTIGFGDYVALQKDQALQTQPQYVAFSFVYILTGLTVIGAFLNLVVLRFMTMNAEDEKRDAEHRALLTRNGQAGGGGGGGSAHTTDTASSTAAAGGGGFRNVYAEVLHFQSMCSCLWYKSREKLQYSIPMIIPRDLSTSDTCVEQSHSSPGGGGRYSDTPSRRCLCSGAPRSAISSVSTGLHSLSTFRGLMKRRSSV

In the case of `O=C(Nc1cccc(NC(=O)c2ccco2)c1)c1ccccc1`, the IC50 [1] is reported as 36 nM (active) and the AC50 [2] is reported as 25 µM (active).
With `CC(C)c1ccccc1NC(=O)Nc1ccc2c(c1)OCO2` the IC50 [3] was > 123 µM (inactive) and the IC50 [4] was > 123 µM (inactive).
For `COc1cc(NC(=O)c2cccc3c(-c4cccnc4)coc23)cc(OC)c1OC`, the AC50 [5] was 978 nM (active), the AC50 [6] was 57.5 µM (active) and the AC50 [7] was 11.5 µM (active). For the same compound, the AC50 [8] was 5.23 µM (active), the AC50 [9] was > 52 µM (inactive) and the AC50 [10] was 11.2 µM (active). The AC50 [11] was 11.2 µM (active) and the AC50 [12] was 28.6 µM (active).
For `NNC(=O)CNC(=O)Nc1nnc(S)s1`, the AC50 [13] was 6.63 µM (active).
In the case of `C[C@@H]1CCCCO[C@H](CN(C)Cc2ccc(C(=O)Nc3ccccc3N)cc2)[C@@H](C)CN([C@@H](C)CO)C(=O)c2cc(NS(=O)(=O)c3ccc(Cl)cc3)ccc2O1`, the AC50 [14] is reported as 11.7 µM (active), the AC50 [15] is reported as 46.9 µM (active) and the AC50 [16] is reported as 7.38 µM (active). For the same compound, the AC50 [17] was 41.6 µM (active).
For `COc1ccc(S(=O)(=O)Nc2ccc3c(c2)C(=O)N([C@@H](C)CO)C[C@@H](C)[C@@H](CN(C)Cc2ccc(C(F)(F)F)cc2)OCCCC[C@@H](C)O3)cc1`, the AC50 [14] was 6.1 µM (active), the AC50 [15] was 24 µM (active) and the AC50 [16] was 23.1 µM (active). The AC50 [17] was 22.5 µM (active).
